Source: publication PMC4176484, “Comparative study of four immortalized human brain capillary endothelial cell lines, hCMEC/D3, hBMEC, TY10, and BB19, and optimization of culture conditions, for an in vitro blood–brain barrier model for drug permeability studies” (Fluids and Barriers of the CNS, 2013)

Assays:
hBMEC mono-cultures = experiment: Maximal TEER of hBMEC mono-cultures under different culture conditions, CellZscope; settings: collagen type I coating
Protocol: For the screening of 24-well tissue culture inserts from different providers (Corning®, Greiner Bio-One®, BD Falcon®, Millipore®, Nunc®, and Brand®), each endothelial cell line (hCMEC/D3 (cultured with growth medium 20% FBS), hBMEC, TY10, and BB19) was seeded separately on the apical side of the filter membrane at a density varying between 1.5 × 10^4 and 17 × 10^4 cells/cm^2. Prior to seeding, the membranes were coated with rat-tail collagen type I. The tissue culture inserts were placed into a 24-well cell module of a CellZscope system (NanoAnalytics, Münster, Germany) [30] which was placed inside an incubator (37°C and 5% CO2). For in vitro models with TY10 cells, further experiments were performed for which the CellZscope system was first placed at 33°C (5% CO2) for 2 days and subsequently transferred to 37°C (5% CO2). The medium was refreshed every 2–4 days. TEER values were recorded in real-time every hour. TEER values for cell layers, expressed in Ωcm^2, were obtained by subtracting the TEER of a coated control insert without cells from a coated insert with cells. After placing the CellZscope system into the incubator, the cell module needs at least 6 h to reach 37°C. Since TEER values are highly temperature sensitive [36], recorded TEER values in this time period were not considered to be valid and are not reported. For each in vitro experiment, 2 or 3 replicates were measured. Results are expressed as means ± S.E.M. In addition to TEER values, the CellZscope system monitors the cell layer capacitance (CCL) which reflects the membrane surface area. CCL values in the range of 0.5-5.0 μF/cm^2 indicate cell confluency and validate TEER values [37, 38]. All reported TEER values in the result section belong to a CCL within this range, if not reported otherwise.

[1] = Paracellular permeability (Papp) of marker compounds through hCMEC/D3 mono-cultures on 24-well inserts; assay type: in vitro ADME; settings: human, Greiner Bio-one transparent PET 3.0 μm inserts, mean ± S.E.M.
Protocol: (§1) To further assess tight junction (TJ) integrity of endothelial cell layers, paracellular permeabilities of Na-F (MW 376.27) and LY (MW 550.39) were measured. These two fluorescent, non-P-glycoprotein (P-gp) substrate molecules have low BBB penetration and are widely used as barrier integrity markers for in vitro models. To obtain comparative data, hCMEC/D3 cells, hBMEC cells, and TY10 cells were seeded onto 24-well tissue culture inserts (Greiner Bio-one®, transparent polyethylene terephthalate (PET) membrane, 3.0 μm pore size, 0.6 × 10^6 pores/cm^2) and incubated at 37°C (5% CO2) (except TY10 cells) inside the CellZscope cell module (Figure 2). For TY10, the CellZscope system was first put at 33°C (5% CO2) for 2 days and was thereafter transferred to 37°C (5% CO2) for 2 days prior to the permeability assay (Figure 3D). Cell seeding density for hCMEC/D3 and hBMEC was 6.0 × 10^4 cells/cm^2, and for TY10 it was 3.0 × 10^4 cells/cm^2. For hBMEC, contact co-culture models with SVG-A cells (9.0 × 10^4 cells/cm^2) or HBPCT cells (6.0 × 10^4 cells/cm^2) on the basal side of the coated filter membranes were tested.
(§2) TEER and CCL values before and after the assays were monitored continuously for integrity control. All experiments for Na-F permeability were carried out at the time indicated with a black arrow in Figures 3A-D. For LY permeability assessment, TEER values were in the same range (graphs not shown). BB19 cells were not included in this permeability study since TEER values were extremely low.
(§3) For the permeability assay, tissue culture inserts were transferred into a 24-well plate containing 700 μL of pre-warmed (37°C) Ringer HEPES buffer (150 mM NaCl, 2.2 mM CaCl2, 0.2 mM MgCl2, 5.2 mM KCl, 2.8 mM glucose, 5 mM HEPES, and 6 mM NaHCO3, pH 7.4) in each well (basolateral compartment). Medium in inserts (apical compartment) was then replaced with 300 μL of a pre-warmed (37°C) working solution containing Na-F or LY at 10 μg/mL in Ringer HEPES buffer. The 24-well plate was incubated at 37°C on an orbital shaker (ELMI DTS-2, Riga, Latvia) with moderate speed (100 rpm) and aliquots of 250 μL of both apical and basolateral compartments were collected after 1 h. All experiments were performed at least in triplicate. Quantification of fluorescence (Na-F: excitation 490 nm, emission 514 nm; LY: excitation 430 nm, emission 535 nm) was carried out using a Chameleon microplate reader (Hidex, Turku, Finland). The apparent permeability coefficient (Papp) for Na-F and LY was calculated in centimeters/second (cm/s) according to the equation: […]

[2] = Paracellular permeability (Papp) of marker compounds through TY10 mono-cultures on 24-well inserts; assay type: in vitro ADME; settings: human, pH 7.4, TY10 monolayers (33°C 2 days, then 37°C 2 days), Greiner Bio-one transparent PET 3.0 μm inserts, mean ± S.E.M.
Protocol: (§4) To further assess tight junction (TJ) integrity of endothelial cell layers, paracellular permeabilities of Na-F (MW 376.27) and LY (MW 550.39) were measured. These two fluorescent, non-P-glycoprotein (P-gp) substrate molecules have low BBB penetration and are widely used as barrier integrity markers for in vitro models. To obtain comparative data, hCMEC/D3 cells, hBMEC cells, and TY10 cells were seeded onto 24-well tissue culture inserts (Greiner Bio-one®, transparent polyethylene terephthalate (PET) membrane, 3.0 μm pore size, 0.6 × 10^6 pores/cm^2) and incubated at 37°C (5% CO2) (except TY10 cells) inside the CellZscope cell module (Figure 2). […]
TEER and CCL values before and after the assays were monitored continuously for integrity control. […]
(§5) For the permeability assay, tissue culture inserts were transferred into a 24-well plate containing 700 μL of pre-warmed (37°C) Ringer HEPES buffer (150 mM NaCl, 2.2 mM CaCl2, 0.2 mM MgCl2, 5.2 mM KCl, 2.8 mM glucose, 5 mM HEPES, and 6 mM NaHCO3, pH 7.4) in each well (basolateral compartment). […] Quantification of fluorescence (Na-F: excitation 490 nm, emission 514 nm; LY: excitation 430 nm, emission 535 nm) was carried out using a Chameleon microplate reader (Hidex, Turku, Finland). The apparent permeability coefficient (Papp) for Na-F and LY was calculated in centimeters/second (cm/s) according to the equation: […]

[3] = Paracellular permeability (Papp) of marker compounds through hBMEC mono-cultures on 24-well inserts; assay type: in vitro ADME; settings: human, mean ± S.E.M.
Protocol: as §1
as §2, with “BB19 cells were not included in this permeability study since TEER values were extremely low.” left out
as §5

[4] = Recovery (mass balance) in permeability assays through mono-cultures; assay type: in vitro ADME; settings: human, pH 7.4; all mono-culture permeability experiments (hCMEC/D3, hBMEC, TY10)
Protocol: as §3, with “All experiments were performed at least in triplicate.” left out
(§6) Recovery (mass balance) of Na-F and LY was calculated with the following equation: […]
[43] where CAf and CBf are the final concentrations of the compound in the apical and basolateral compartment, respectively, CA0 is the initial concentration in the apical compartment, and VA and VB are the volumes in the apical and basolateral compartments, respectively. All results are expressed as means ± S.E.M.

[5] = Paracellular permeability (Papp) through hBMEC contact co-culture with HBPCT pericytes; assay type: in vitro ADME; settings: human, mean ± S.E.M.
Protocol: as §4, §5

[6] = Paracellular permeability (Papp) through hBMEC contact co-culture with SVG-A astrocytes; assay type: in vitro ADME; settings: human, mean ± S.E.M.
Protocol: as §4, §5

[7] = Recovery (mass balance) in permeability assays through hBMEC mono-cultures and contact co-cultures; assay type: in vitro ADME; settings: human, pH 7.4; all hBMEC mono-culture / co-culture experiments with SVG-A or HBPCT
Protocol: as §4, §5, §6

[8] = pH 7.4, hCMEC/D3 cultivated with growth medium containing 20% FBS
[9] = pH 7.4, hCMEC/D3 grown with initial medium containing 5% FBS
[10] = pH 7.4, hBMEC mono-culture, growth medium 20% FBS, Greiner Bio-one transparent PET 3.0 μm inserts, 10 μg/mL apical, 1 h, 37°C

For C[C@]12CCC(=O)C=C1CC[C@@H]1[C@@H]2[C@@H](O)C[C@@]2(C)[C@H]1CC[C@]2(O)C(=O)CO [HC, hydrocortisone], which “Mean max. TEER ± S.E.M.” value (hBMEC mono-cultures; growth medium with additional HC 500 nM for 3 days (only apical), 4.5 × 10^4 cells/cm^2, at 3.19 d) is on record?
The value was 43.2 (± 4.27) Ωcm^2.

And the “Mean max. TEER ± S.E.M.” value (hBMEC mono-cultures; growth medium with additional HC 1500 nM for 3 days (only apical), 4.5 × 10^4 cells/cm^2, at 3.19 d)?
The value was 40.4 (± 0.646) Ωcm^2.

What does the source list for C=CS(=O)(=O)c1cccc(N2C(=O)c3cc(S(=O)(=O)[O-])cc4c(N)c(S(=O)(=O)[O-])cc(c34)C2=O)c1.[Li+].[Li+] [LY, Lucifer Yellow VS dilithium salt]?
Papp at 1 h, 10 μg/mL [1, 8]: 11.7 ± 0.957 ×10⁻⁶ cm/s; Papp at 1 h, 10 μg/mL [1, 9]: 10 ± 0.498 ×10⁻⁶ cm/s; Papp at 1 h, 10 μg/mL [2]: 9.68 ± 0.413 ×10⁻⁶ cm/s; Papp at 1 h, 10 μg/mL [3, 10]: 5.39 ± 0.364 ×10⁻⁶ cm/s; recovery at 1 h, 10 μg/mL [4]: 66 to 79%

With O=C([O-])c1ccccc1-c1c2ccc(=O)cc-2oc2cc([O-])ccc12.[Na+].[Na+] [Na-F, sodium fluorescein] as the compound, how does the Papp at 1 h, 10 μg/mL [1, 8] read?
The Papp at 1 h, 10 μg/mL was 13.4 ± 0.484 ×10⁻⁶ cm/s.

And the Papp at 1 h, 10 μg/mL [1, 9]?
The Papp at 1 h, 10 μg/mL was 12.5 ± 0.326 ×10⁻⁶ cm/s.

What about the Papp at 1 h, 10 μg/mL ([5]; pH 7.4, hBMEC co-cultured with HBPCT, medium deprived of growth factors, n = 3) of the same compound?
The Papp at 1 h, 10 μg/mL was 7.22 ± 0.455 ×10⁻⁶ cm/s.

And the Papp at 1 h, 10 μg/mL ([5]; pH 7.4, hBMEC contact co-culture with HBPCT, medium with growth factors)?
Its Papp at 1 h, 10 μg/mL is 8.26 ± 0.893 ×10⁻⁶ cm/s.

And the Papp at 1 h, 10 μg/mL [2]?
Its Papp at 1 h, 10 μg/mL is 12.4 ± 0.155 ×10⁻⁶ cm/s.

And the Papp at 1 h, 10 μg/mL [3, 10]?
Its Papp at 1 h, 10 μg/mL is 5.08 ± 0.22 ×10⁻⁶ cm/s.

And the Papp at 1 h, 10 μg/mL ([3]; pH 7.4, hBMEC monolayers cultured without growth factors, n = 3)?
The Papp at 1 h, 10 μg/mL was 5.11 ± 0.0487 ×10⁻⁶ cm/s.

What about the Papp at 1 h, 10 μg/mL ([6]; pH 7.4, hBMEC co-cultured with SVG-A, medium deprived of growth factors, n = 3) of the same compound?
The Papp at 1 h, 10 μg/mL was 6.88 ± 0.516 ×10⁻⁶ cm/s.

And the Papp at 1 h, 10 μg/mL ([6]; pH 7.4, hBMEC contact co-culture with SVG-A, medium with growth factors)?
Its Papp at 1 h, 10 μg/mL is 7.43 ± 0.2 ×10⁻⁶ cm/s.

What about the recovery at 1 h, 10 μg/mL [7] of the same compound?
Its recovery at 1 h, 10 μg/mL is 98 to 102%.

And the recovery at 1 h, 10 μg/mL [4]?
Its recovery at 1 h, 10 μg/mL is 75 to 87%.

Which results are given for C[C@@H]1C[C@H]2[C@@H]3CCC4=CC(=O)C=C[C@]4(C)[C@@]3(F)[C@@H](O)C[C@]2(C)[C@@]1(O)C(=O)CO [dexamethasone]?
Mean max. TEER ± S.E.M. (hBMEC mono-cultures; growth medium with dexamethasone 500 nM for 3 days (only apical), 9.0 × 10^4 cells/cm^2, at 4.15 d): 35.9 (± 0.338) Ωcm^2; Mean max. TEER ± S.E.M. (hBMEC mono-cultures; growth medium with dexamethasone 1000 nM for 3 days (only apical), 9.0 × 10^4 cells/cm^2, at 4.15 d): 38.0 (± 1.26) Ωcm^2

For human epidermal growth factor [hEGF], which “Mean max. TEER ± S.E.M.” value (hBMEC mono-cultures; growth medium with additional hEGF 50 ng/mL for 3 days (only apical), 9.0 × 10^4 cells/cm^2, at 4.15 d) is on record?
The value was 36.4 (± 0.902) Ωcm^2.

What about the “Mean max. TEER ± S.E.M.” value (hBMEC mono-cultures; growth medium with additional hEGF 100 ng/mL for 3 days (only apical), 9.0 × 10^4 cells/cm^2, at 4.15 d) of the same compound?
The value was 40.0 (± 1.94) Ωcm^2.
